Columns and labels:
[1] = tested on: collagenase I promoter; experiment: Experiment 1: collagenase I promoter (-73/+63)-luciferase in CV1 cells, no receptor plasmid (Empty); format: cell-based, African Green Monkey; details: for Raw counts (Empty) / % control (Empty): no receptor; for % control (Empty): Blank = 100
Source text: (§1) Two plasmid constructs were introduced by standard calcium phosphate precipitation of DNA followed by glycerol shock (Ausubel F M, Brent R, Kingston D D, Moore J G et al Current protocols in molecular biology 1994 Greene Publishing Associates/Wiley-Interscience, New York, N.Y.) using a transformed African Green Monkey kidney cell line (CV1) (Schneikert J, Peterziel H, Defossez P-A, Klocker H, de Launoit Y and Cato A C B Androgen receptor-Ets protein interaction is a novel mechanism for steroid hormone-mediated down-modulation of matrix metalloproteinase expression, Journal of Biological Chemistry. Vol 271(39) (pp 23907-23913), 1996).
Accordingly, the following two plasmids were included into CV1 cells described above — • (a) Either of GR1 or pSG5ARF containing glucocorticoid or androgen receptor (AR) respectively, both at 2 ug per 5×10^5 cells, driven by the Rous sarcoma virus promoter, and • (b) a plasmid containing the −73/+63 portion of the collagenase I promoter linked to luciferase gene at 8 ug per 5×10^5 cells.
CPII was compound II above, clobuzarit.

[2] = tested on: pro-MMP-1; experiment: Experiment 5: immunoblot of pro-MMP-1 in rheumatoid fibroblasts; format: cell-based, human; details: 36 hours, 10 ng/ml TPA plus 5×10^-7M substance, compared to TPA alone (lane 5)
Method: Rheumatoid fibroblasts were cultured from synovium obtained from the knee joint of a patient with rheumatoid arthritis. Cells were cultured in monolayer with DMEM tissue culture medium (Gibco) with the inclusion of 5% v/v charcoal stripped serum in 75 cm^2 flasks. The cells were treated for 36 hours with the addition of 10 ng/ml TPA (phorbol ester) plus 5×10^−7M thyroid hormone, Compound II or Compound III. TPA and drugs were added at time zero and at 30 hours, the TPA addition ensured phosphorylation of c-jun.
After 36 hours, cells were lysed in phosphate buffered saline (PBS) containing protease inhibitors and 0.1% Triton-X-100, and then boiled for 5 minutes in non-reducing gel loading buffer. Samples of cell lysate corresponding to equal cell number were loaded onto a 12.5% SDS polyacrylamide gel, and electrophoresis using a Bio-Rad™, (Bio-Rad Laboratories, California USA) Mini Protean II cell was performed at approximately 100V for one hour.
Transfer of proteins to nitrocellulose membrane was performed using a Bio-Rad Mini Trans-Blot transfer cell.
Immunoblotting was performed using polyclonal rabbit anti-human phosphorylation specific (set 73) c-jun (cat. No 06659, Upstate Biotechnology), or MMP-1 (cat. No. RDI-MMP1Habr, Research Diagnostics) antibodies diluted 1:1000 in Tris buffered saline+3% fat free milk powder. […]

[3] = tested on: collagenase (MMP-1) promoter; experiment: Experiment 4.2: collagenase (MMP-1) promoter-luciferase in MCF-7 cells with antisense construct for the thyroid receptor; format: cell-based, human; details: MCF-7 + thyroid receptor antisense; for % Control: Blank = 100
Method: These experiments were intended to identify the receptor through which compounds I might be acting to block collagenase promoter activity.
Transfection procedure hereinbefore described with CV1 cells was repeated using MCF-7 mammary breast cancer cells derived from pleural effusion from a breast cancer patient. Additionally, each experiment included transfection of a plasmid (at 8 ug per 5×10^5 cells) containing the −517/+63 section of the collagenase (MMP-1) promoter linked to the luciferase gene. TPA was used as above to stimulate activity of the collagenase promoter resulting in luciferase production. Compound II or 3,3,5-triiodo-L-thyronine (T3) was included (both at 10^−8M), the latter being a known ligand for the thyroid hormone receptor.
Experiment 4.2. The procedure of Experiment 4.1 was repeated except that a second plasmid, containing 662 bp antisense construct for the thyroid receptor (at 8 ug per 5×10^5 cells) was additionally transfected.

[4] = biological target: T1, androgen receptor (Homo sapiens, UniProt P10275); experiment: Experiment 2: PGL3MMTV-luciferase transactivation in CV1 cells with androgen receptor (AR); format: cell-based; details: for % control (AR): Blank = 100
T1 construct: expressed in transfected cells; host or cells: CV1 (transformed African Green Monkey kidney cell line)
T1 sequence (P10275 1-920): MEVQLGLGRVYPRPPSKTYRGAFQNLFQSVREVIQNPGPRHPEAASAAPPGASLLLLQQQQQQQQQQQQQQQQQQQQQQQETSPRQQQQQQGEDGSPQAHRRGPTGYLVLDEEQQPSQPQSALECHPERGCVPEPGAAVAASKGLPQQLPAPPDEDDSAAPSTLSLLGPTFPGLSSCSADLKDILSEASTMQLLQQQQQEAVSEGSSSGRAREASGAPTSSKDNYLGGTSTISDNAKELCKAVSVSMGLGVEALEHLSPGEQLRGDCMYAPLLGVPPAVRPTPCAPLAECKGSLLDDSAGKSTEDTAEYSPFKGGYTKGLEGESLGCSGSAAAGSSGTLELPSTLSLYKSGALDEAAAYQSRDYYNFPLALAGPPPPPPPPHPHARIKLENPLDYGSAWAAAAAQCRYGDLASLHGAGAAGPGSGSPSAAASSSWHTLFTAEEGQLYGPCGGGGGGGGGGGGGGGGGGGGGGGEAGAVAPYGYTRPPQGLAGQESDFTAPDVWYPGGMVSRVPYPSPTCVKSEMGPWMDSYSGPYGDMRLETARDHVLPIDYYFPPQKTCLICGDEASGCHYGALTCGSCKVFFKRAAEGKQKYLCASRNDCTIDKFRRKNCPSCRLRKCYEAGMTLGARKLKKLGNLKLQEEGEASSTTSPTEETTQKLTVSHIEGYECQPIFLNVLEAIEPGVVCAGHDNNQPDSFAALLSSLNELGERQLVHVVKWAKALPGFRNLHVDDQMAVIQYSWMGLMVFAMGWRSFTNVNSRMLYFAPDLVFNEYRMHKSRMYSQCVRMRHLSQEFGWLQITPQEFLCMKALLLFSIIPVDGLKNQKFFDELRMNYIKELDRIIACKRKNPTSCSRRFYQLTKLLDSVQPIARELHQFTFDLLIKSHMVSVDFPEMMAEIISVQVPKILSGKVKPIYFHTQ
Source text: as §1
This experiment was intended to investigate the activation of androgen and corticosteroid receptors by compound I.
CPII was compound II above, clobuzarit, which was used at 10^−7M.

[5] = substance added with TPA 75 ng/ml
[6] = substance 10^-8M added with TPA
[7] = CPII 10^-7M together with DHT 10^-7M

Compound: CC(C)(OCc1ccc(-c2ccc(Cl)cc2)cc1)C(=O)O [Compound II, 1-[4-(4-chlorophenyl)benzyloxy]-1-methylpropionic acid]
- collagenase I (MMP) promoter activity in the absence of either receptor, in words ([1]; TPA stimulated and unstimulated, Empty): able to reduce the level
- Raw counts (Empty) ([1]; luciferase, substance added alone, TPA 75 ng/ml): 1882 counts
- % control (Empty) ([1]; substance added alone): 78%
- Raw counts (Empty) [1, 5]: 2747 counts
- % control (Empty) [1, 5]: 115%
- amount of pro-MMP-1, band intensity [2]: lower intensity
- luciferase production when thyroid hormone receptor synthesis is inhibited, in words [3]: substantially prevented
- Raw Counts [3, 6]: 8716 counts
- % Control [3, 6]: 597.8%
- % Control ([3]; substance added alone): 163.2%
- Raw Counts ([3]; substance added alone, CPII 10^-8M): 2379 counts
- activation of androgen receptor-driven transcription, in words ([4]; 10^-7M, compared with DHT): negligible activity
- Raw counts (AR) [4, 7]: 1232241 counts
- % control (AR) [4, 7]: 26574%
- Raw counts (AR) ([4]; substance alone at 10^-7M): 33130 counts
- % control (AR) ([4]; substance alone at 10^-7M): 714%
